Results: paper PMC4621994 (British Journal of Pharmacology, 2015)
“And” between values parts separate entries of the source, which are not always exact repeats. Equal values may be shown once. “Also recorded” adds a separate entry of the source. Read-outs that look alike come from different tables or passages of the source.

Experiments:
[1] = tested on: native GABAA receptors in hippocampal neurons; experiment: GABA-evoked currents in cultured hippocampal neurons, perforated patch; type: cell-based, rat; conditions: for GABA Emax (normalized), solvent / GABA Emax (normalized) in the presence of flupirtine (30 μM): Hippocampus neurons
[2] = tested on: aEPSCs in hippocampal neurons; experiment: Autaptic excitatory postsynaptic currents (aEPSCs) in hippocampal microcultures; type: cell-based, rat
[3] = tested on: tonically active GABAA receptors in hippocampal neurons; type: cell-based, rat
[4] = tested on: mIPSCs in hippocampal neurons; type: cell-based, rat
[5] = biological target: T1, δ-containing GABAA receptors in hippocampal neurons (Rattus norvegicus, UniProt P18506); experiment: THIP-evoked currents in cultured hippocampal neurons; type: cell-based; conditions: 30 μM flupirtine; 3 μM THIP; greater extent than 3 μM GABA in 5 mM penicillin
T1 construct: endogenous in cells; host or cells: primary cultured rat hippocampal neurons
T1 sequence (P18506 17-449 limits assumed): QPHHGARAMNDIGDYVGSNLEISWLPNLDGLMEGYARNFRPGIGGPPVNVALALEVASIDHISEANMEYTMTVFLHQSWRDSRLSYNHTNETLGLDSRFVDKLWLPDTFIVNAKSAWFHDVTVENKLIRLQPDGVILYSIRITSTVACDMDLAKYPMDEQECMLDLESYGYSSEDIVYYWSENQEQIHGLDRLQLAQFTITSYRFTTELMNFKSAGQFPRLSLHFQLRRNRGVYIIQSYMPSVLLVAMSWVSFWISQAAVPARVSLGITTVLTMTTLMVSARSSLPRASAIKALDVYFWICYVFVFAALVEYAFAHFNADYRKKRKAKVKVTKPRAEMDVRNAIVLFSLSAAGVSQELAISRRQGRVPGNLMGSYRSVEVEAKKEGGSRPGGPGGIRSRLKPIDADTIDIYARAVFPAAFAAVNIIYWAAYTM

α1β2γ2S GABAA receptor = biological target: T2, α1β2γ2S GABAA receptor (Rattus norvegicus, UniProt P18508+P62813+P63138); experiment: GABA-evoked currents through recombinant receptors in tsA 201 cells; type: cell-based
T2 construct: expressed in transfected cells; host or cells: tsA 201 cells
T2 sequence (P62813 28-455): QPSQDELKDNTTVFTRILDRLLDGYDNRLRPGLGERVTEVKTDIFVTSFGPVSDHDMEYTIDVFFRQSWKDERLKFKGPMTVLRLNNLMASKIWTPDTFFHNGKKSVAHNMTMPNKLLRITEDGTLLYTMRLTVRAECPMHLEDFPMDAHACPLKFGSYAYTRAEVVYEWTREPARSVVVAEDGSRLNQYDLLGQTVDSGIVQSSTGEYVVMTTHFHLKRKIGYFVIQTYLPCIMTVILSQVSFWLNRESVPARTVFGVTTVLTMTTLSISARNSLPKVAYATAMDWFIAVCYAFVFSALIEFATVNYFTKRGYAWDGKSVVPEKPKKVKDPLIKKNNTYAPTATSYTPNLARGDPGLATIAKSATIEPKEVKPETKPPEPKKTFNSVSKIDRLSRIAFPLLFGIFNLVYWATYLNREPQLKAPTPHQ
T2 sequence (P63138 25-474 limits assumed): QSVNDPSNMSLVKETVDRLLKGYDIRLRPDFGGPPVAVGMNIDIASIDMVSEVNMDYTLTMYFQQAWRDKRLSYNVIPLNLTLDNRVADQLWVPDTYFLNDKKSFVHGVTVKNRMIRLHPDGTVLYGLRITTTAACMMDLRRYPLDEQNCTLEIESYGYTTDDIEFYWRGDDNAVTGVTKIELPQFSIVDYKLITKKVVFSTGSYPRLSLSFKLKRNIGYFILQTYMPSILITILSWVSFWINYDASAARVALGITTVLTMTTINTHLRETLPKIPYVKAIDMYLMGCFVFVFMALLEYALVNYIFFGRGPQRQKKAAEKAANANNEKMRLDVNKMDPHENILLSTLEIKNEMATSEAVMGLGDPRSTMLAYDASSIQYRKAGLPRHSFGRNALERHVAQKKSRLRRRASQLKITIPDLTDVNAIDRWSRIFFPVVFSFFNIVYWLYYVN
T2 sequence (P18508 39-466): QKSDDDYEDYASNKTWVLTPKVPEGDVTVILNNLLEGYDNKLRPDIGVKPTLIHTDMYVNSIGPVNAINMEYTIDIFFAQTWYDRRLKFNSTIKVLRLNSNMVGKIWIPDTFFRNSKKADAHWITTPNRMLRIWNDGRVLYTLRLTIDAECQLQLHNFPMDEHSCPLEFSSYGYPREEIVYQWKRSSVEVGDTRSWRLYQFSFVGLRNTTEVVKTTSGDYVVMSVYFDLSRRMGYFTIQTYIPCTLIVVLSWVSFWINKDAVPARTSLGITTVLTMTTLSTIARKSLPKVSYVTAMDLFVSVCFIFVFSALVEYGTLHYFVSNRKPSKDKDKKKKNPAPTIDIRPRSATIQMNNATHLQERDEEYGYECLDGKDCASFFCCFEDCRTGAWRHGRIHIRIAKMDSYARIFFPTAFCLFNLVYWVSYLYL

[6] = tested on: αβ and γ-containing recombinant GABAA receptors; type: cell-based, rat
[7] = cited from earlier work
α1β2 GABAA receptor = biological target: T3, α1β2 GABAA receptor (Rattus norvegicus, UniProt P62813+P63138); experiment: GABA-evoked currents through recombinant receptors in tsA 201 cells; type: cell-based; conditions: 30 μM flupirtine, normalized to 30 μM GABA in solvent
T3 construct: expressed in transfected cells; host or cells: tsA 201 cells
T3 sequence (P62813 28-455): as the sequence (P62813 28-455) above
T3 sequence (P63138 25-474 limits assumed): as the sequence (P63138 25-474 limits assumed) above

α4β3γ2S GABAA receptor = biological target: T4, α4β3γ2S GABAA receptor (Rattus norvegicus, UniProt P18508+P28471+P63079); experiment: as above; type: cell-based; conditions: 30 μM flupirtine, normalized to 30 μM GABA in solvent
T4 construct: expressed in transfected cells; host or cells: tsA 201 cells
T4 sequence (P28471 36-552): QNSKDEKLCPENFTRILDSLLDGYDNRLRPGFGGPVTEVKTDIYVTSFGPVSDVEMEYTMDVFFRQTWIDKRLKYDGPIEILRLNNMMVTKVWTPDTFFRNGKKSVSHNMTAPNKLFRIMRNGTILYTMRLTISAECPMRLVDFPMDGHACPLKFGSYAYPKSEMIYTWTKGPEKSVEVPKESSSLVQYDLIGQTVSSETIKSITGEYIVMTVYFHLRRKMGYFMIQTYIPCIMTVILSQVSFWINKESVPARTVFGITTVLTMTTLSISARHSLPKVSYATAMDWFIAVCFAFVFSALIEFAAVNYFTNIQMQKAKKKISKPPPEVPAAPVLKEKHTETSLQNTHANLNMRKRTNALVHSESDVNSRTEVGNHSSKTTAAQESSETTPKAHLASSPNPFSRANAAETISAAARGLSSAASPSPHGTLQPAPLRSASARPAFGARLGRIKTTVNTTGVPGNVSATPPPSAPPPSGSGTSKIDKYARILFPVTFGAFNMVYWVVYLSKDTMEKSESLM
T4 sequence (P63079 26-473): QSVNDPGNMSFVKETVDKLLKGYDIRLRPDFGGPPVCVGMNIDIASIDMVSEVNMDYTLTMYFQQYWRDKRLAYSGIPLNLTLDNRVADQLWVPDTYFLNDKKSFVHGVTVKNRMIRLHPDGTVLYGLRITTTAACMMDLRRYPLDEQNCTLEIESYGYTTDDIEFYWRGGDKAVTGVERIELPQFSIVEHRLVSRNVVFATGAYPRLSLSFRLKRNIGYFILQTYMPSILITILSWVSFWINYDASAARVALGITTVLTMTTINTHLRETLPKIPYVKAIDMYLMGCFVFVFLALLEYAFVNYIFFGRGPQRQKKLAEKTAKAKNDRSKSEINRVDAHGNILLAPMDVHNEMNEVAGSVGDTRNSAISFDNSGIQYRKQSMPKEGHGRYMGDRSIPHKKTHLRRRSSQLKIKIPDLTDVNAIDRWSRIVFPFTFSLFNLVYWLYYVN
T4 sequence (P18508 39-466): as the sequence (P18508 39-466) above

α1β2δ GABAA receptor = biological target: T5, α1β2δ GABAA receptor (Rattus norvegicus, UniProt P18506+P62813+P63138); experiment: as above; type: cell-based
T5 construct: expressed in transfected cells; host or cells: tsA 201 cells
T5 sequence (P62813 28-455): as the sequence (P62813 28-455) above
T5 sequence (P63138 25-474 limits assumed): as the sequence (P63138 25-474 limits assumed) above
T5 sequence (P18506 17-449 limits assumed): as the sequence (P18506 17-449 limits assumed) above

α2β2γ2S GABAA receptor = biological target: T6, α2β2γ2S GABAA receptor (Rattus norvegicus, UniProt P18508+P23576+P63138); experiment: as above; type: cell-based; conditions: 30 μM flupirtine, normalized to 30 μM GABA in solvent, n.s. vs solvent
T6 construct: expressed in transfected cells; host or cells: tsA 201 cells
T6 sequence (P23576 29-451): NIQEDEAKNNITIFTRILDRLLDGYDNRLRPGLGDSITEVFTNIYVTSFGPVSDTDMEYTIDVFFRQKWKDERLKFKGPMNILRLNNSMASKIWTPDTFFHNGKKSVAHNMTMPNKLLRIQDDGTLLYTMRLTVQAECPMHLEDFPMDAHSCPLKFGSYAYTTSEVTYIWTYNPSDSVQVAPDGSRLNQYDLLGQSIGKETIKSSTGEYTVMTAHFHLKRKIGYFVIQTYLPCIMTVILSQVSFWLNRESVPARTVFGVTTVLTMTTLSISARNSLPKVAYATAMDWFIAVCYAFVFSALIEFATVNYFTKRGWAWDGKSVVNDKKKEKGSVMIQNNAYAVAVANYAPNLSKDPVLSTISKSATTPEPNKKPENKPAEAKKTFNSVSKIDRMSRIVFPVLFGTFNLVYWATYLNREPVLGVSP
T6 sequence (P63138 25-474 limits assumed): as the sequence (P63138 25-474 limits assumed) above
T6 sequence (P18508 39-466): as the sequence (P18508 39-466) above

[8] = biological target: T7, heteromeric Kv7.2/Kv7.3 channels (UniProt O43526+O88944); experiment: Currents through recombinant Kv7 channels in tsA 201 cells, ramp hyperpolarizations, amplitude at −30 mV; type: cell-based
T7 construct: expressed in transfected cells; host or cells: tsA 201 cells

[9] = tested on: untransfected tsA 201 cells; experiment: Control recordings in untransfected tsA 201 cells; type: cell-based; conditions: control experiments
Experimental: Primary cultures of rat hippocampal and DH neurons were prepared as described previously (Klinger et al., [2012]). Micro-island cultures were obtained as detailed elsewhere (Dorostkar and Boehm, [2007]). For heterologous expression of GABAA receptors and Kv7 channels, tsA 201 cells (a subclone of HEK 293 cells) were cultured in DMEM containing 1 g · L^−1 glucose and 10% heat-inactivated fetal calf serum. Cells were transfected using ExGen 500 or TurboFect according to the manufacturer's recommendations, with a transfection ratio of 1:1 for αβ receptors, 1:1:8 for αβγ or αβδ receptors and 1:1 for heteromeric Kv7.2/Kv7.3 channels. The day after transfection, cells were seeded at a low density and used for patch-clamp recordings 24–48 h after transfection.

α4β3 GABAA receptor = biological target: T8, α4β3 GABAA receptor (Rattus norvegicus, UniProt P28471+P63079); experiment: GABA-evoked currents through recombinant receptors in tsA 201 cells; type: cell-based; conditions: 30 μM flupirtine, normalized to 30 μM GABA in solvent
T8 construct: expressed in transfected cells; host or cells: tsA 201 cells
T8 sequence (P28471 36-552): as the sequence (P28471 36-552) above
T8 sequence (P63079 26-473): as the sequence (P63079 26-473) above

α4β3δ GABAA receptor = biological target: T9, α4β3δ GABAA receptor (Rattus norvegicus, UniProt P18506+P28471+P63079); experiment: as above; type: cell-based
T9 construct: expressed in transfected cells; host or cells: tsA 201 cells
T9 sequence (P28471 36-552): as the sequence (P28471 36-552) above
T9 sequence (P63079 26-473): as the sequence (P63079 26-473) above
T9 sequence (P18506 17-449 limits assumed): as the sequence (P18506 17-449 limits assumed) above

[10] = tested on: Kv7 channels in DH neurons; experiment: K+ currents in dorsal horn neurons, ramp hyperpolarizations, amplitude at −30 mV; type: cell-based, rat; conditions: 3 and 10 μM flupirtine; quantified at −30 mV
α3β3γ2S GABAA receptor = biological target: T10, α3β3γ2S GABAA receptor (Rattus norvegicus, UniProt P18508+P20236+P63079); experiment: GABA-evoked currents through recombinant receptors in tsA 201 cells; type: cell-based; conditions: 30 μM flupirtine, normalized to 30 μM GABA in solvent, n.s. vs solvent
T10 construct: expressed in transfected cells; host or cells: tsA 201 cells
T10 sequence (P20236 29-493): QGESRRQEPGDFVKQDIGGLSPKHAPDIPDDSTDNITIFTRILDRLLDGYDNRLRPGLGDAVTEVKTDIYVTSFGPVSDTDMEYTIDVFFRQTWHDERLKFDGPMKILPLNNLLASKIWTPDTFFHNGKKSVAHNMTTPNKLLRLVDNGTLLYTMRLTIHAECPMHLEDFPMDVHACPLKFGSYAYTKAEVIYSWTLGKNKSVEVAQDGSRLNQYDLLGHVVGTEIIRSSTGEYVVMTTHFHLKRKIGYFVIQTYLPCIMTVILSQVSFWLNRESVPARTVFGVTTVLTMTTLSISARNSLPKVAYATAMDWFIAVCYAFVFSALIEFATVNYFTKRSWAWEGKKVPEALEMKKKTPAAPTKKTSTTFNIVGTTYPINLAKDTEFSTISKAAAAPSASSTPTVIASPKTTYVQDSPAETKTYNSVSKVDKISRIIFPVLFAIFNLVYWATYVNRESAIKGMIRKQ
T10 sequence (P63079 26-473): as the sequence (P63079 26-473) above
T10 sequence (P18508 39-466): as the sequence (P18508 39-466) above

[11] = biological target: T11, δ-containing GABAA receptors in DH neurons (Rattus norvegicus, UniProt P18506); experiment: THIP-evoked currents in dorsal horn neurons; type: cell-based; conditions: 3 μM THIP; concentration-dependent; more pronounced than on GABA currents; at 10 μM larger than on K+ currents
T11 construct: endogenous in cells; host or cells: primary cultured rat dorsal horn neurons
T11 sequence (P18506 17-449 limits assumed): as the sequence (P18506 17-449 limits assumed) above

[12] = tested on: Kv7 channels in hippocampal neurons; experiment: K+ currents in hippocampal neurons, ramp hyperpolarizations, amplitude at −30 mV; type: cell-based, rat
[13] = design: method as in Friedel and Fitton, 1993; conditions: ref Friedel and Fitton, 1993; cited from earlier work
[14] = tested on: GABAA receptors in DH neurons; experiment: GABA-evoked currents in dorsal horn neurons; type: cell-based, rat; conditions: 3 μM GABA; concentration-dependent
[15] = Plasma pharmacokinetics and therapeutic plasma levels of flupirtine (literature); type: in vivo; conditions: after single doses
α5β3γ2S GABAA receptor = biological target: T12, α5β3γ2S GABAA receptor (Rattus norvegicus, UniProt P18508+P19969+P63079); experiment: GABA-evoked currents through recombinant receptors in tsA 201 cells; type: cell-based; conditions: 30 μM flupirtine, normalized to 30 μM GABA in solvent
T12 construct: expressed in transfected cells; host or cells: tsA 201 cells
T12 sequence (P19969 32-464 limits assumed): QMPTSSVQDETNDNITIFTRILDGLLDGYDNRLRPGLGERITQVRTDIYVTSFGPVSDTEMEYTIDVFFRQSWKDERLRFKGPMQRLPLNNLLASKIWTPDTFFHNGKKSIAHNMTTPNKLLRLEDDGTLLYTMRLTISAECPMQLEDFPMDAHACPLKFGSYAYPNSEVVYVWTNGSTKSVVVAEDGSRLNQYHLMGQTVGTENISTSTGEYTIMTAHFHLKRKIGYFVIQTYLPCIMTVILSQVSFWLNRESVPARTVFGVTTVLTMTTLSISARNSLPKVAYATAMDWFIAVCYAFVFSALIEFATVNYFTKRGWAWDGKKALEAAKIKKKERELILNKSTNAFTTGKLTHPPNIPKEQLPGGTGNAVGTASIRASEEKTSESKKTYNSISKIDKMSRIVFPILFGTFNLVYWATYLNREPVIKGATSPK
T12 sequence (P63079 26-473): as the sequence (P63079 26-473) above
T12 sequence (P18508 39-466): as the sequence (P18508 39-466) above

Kv7 channels = tested on: Kv7 channels; design: method as in Klinger et al., 2012; conditions: ref Klinger et al., 2012; read-out: EC50 for the facilitation of Kv7 channels; cited from earlier work
[16] = tested on: aIPSCs in hippocampal neurons; experiment: Autaptic inhibitory postsynaptic currents (aIPSCs) in hippocampal microcultures; type: cell-based, rat

In the case of `NCCCC(=O)O` [GABA], the “GABA Emax (normalized), solvent” value ([1]; 5 mM penicillin present, normalized to 30 μM GABA in penicillin plus solvent) is reported as 1.02 ± 0.02 and the “GABA Emax (normalized), solvent” value ([1]; solvent, normalized to current by 30 μM GABA in solvent) is reported as 1.33 ± 0.03.
In the case of `N#Cc1cc2nc(O)c(O)nc2cc1[N+](=O)[O-]` [CNQX, cyano-2,3-dihydroxy-7-nitroquinoxaline], the “Effect on aEPSCs” value ([2]; 10 μM CNQX) is reported as “blocked”.
With penicillin the “Effect on holding currents” value ([3]; 5 mM penicillin) was “did not affect”, the “Effect on maximal amplitudes of GABA-evoked currents” value ([1]; 5 mM penicillin) was “significantly reduced” and the “Effect on mIPSCs” value ([4]; 5 mM penicillin) was “abolished”.
In the case of `CCOC(=O)Nc1ccc(NCc2ccc(F)cc2)nc1N` [Flupirtine], the “Effect of flupirtine on THIP-induced currents” value [5] is reported as “augmented”, the “Effect of flupirtine on GABA-evoked currents” value (α1β2γ2S GABAA receptor; 10 μM flupirtine) is reported as “augmented” and the “GABA Emax (normalized) in the presence of flupirtine (30 μM)” value (“GABA Emax (normalized) in the presence” for short) (α1β2γ2S GABAA receptor; 30 μM flupirtine, normalized to 30 μM GABA in solvent) is reported as 0.85 ± 0.02. The “Reduction of maximal current amplitudes” value [6] was 18 to 35%, the “Effect on aEPSCs” value ([2]; aIPSCs (former) vs aEPSCs (latter)) was “only the former ones were affected” and the Accumulation ([7]; four regularly spaced oral doses a day, ref Friedel and Fitton, 1993) was “more than twofold”. The Plasma half-life ([7]; ref Friedel and Fitton, 1993) was “about 10 h”, the Plasma concentrations ([7]; single dose of 200 mg, ref Hummel et al., 1991) was “around 5 μM” and the “Effect on holding currents” value ([3]; 30 μM flupirtine, −70 mV) was “shifted towards more negative values”. The “Effect on amplitudes of bicuculline-sensitive tonic currents” value ([3]; 3 to 30 μM flupirtine, concentration-dependent) was “enhanced”, the “GABA Emax (normalized) in the presence” value (α1β2 GABAA receptor) was 0.71 ± 0.02 and the “GABA Emax (normalized) in the presence” value (α4β3γ2S GABAA receptor) was 1.63 ± 0.05. For the same molecule, the EC50 (α1β2δ GABAA receptor) was 108 µM, the “Effect of flupirtine on GABA-evoked currents” value (α1β2δ GABAA receptor) was “potentiated; also recorded: augmented” and the “Maximum of flupirtine effect on GABA-evoked currents (normalized to solvent)” value (α1β2δ GABAA receptor) was 28.8. For the same molecule, the “GABA Emax (normalized) in the presence” value (α1β2δ GABAA receptor; α1β2δ, 30 μM flupirtine, normalized to 30 μM GABA in solvent) was 2.27 ± 0.06, the “GABA Emax (normalized) in the presence” value (α2β2γ2S GABAA receptor) was 2.54 ± 0.14 n.s and the “Effect of flupirtine on currents through Kv7 channels at −30 mV” value ([8]; 3 μM flupirtine) was “enhanced”. The “Effect of flupirtine on currents through Kv7 channels at −30 mV” value ([8]; 10 μM flupirtine) was “augmented”, the “Effect on currents in untransfected cells” value [9] was “failed to enhance any type of current” and the “GABA Emax (normalized) in the presence” value (α4β3 GABAA receptor) was 0.78 ± 0.02. The “Maximal increase in GABA-evoked current amplitudes (factor)” value [1] was ~9 and > 8, the “Maximal increase in GABA-evoked current amplitudes (factor)” value ([1]; 3 μM GABA in solvent, no penicillin) was 2.5 and < 3 and the “Effect of flupirtine on GABA-evoked currents” value ([1]; 3 μM flupirtine, presence of penicillin) was “enhanced”. For the same molecule, the “Effect of flupirtine on GABA-evoked currents” value ([1]; 10 μM flupirtine, absence of penicillin) was “increased”, the “Effect of flupirtine on GABA-evoked currents” value ([1]; 10 μM flupirtine, presence of penicillin, more pronounced than on the other currents) was “increased” and the “GABA Emax (normalized) in the presence” value ([1]; 30 μM flupirtine, normalized to 30 μM GABA in solvent, n.s. vs solvent) was 1.25 ± 0.04 n.s. For the same molecule, the “GABA Emax (normalized) in the presence” value ([1]; 5 mM penicillin plus 30 μM flupirtine, normalized to 30 μM GABA in penicillin plus solvent) was 1.46 ± 0.03, the EC50 (α4β3δ GABAA receptor) was 7 µM and the “Maximum of flupirtine effect on GABA-evoked currents (normalized to solvent)” value (α4β3δ GABAA receptor; α4β3δ, 1 μM GABA, fixed to the highest value determined) was 1.5. For the same molecule, the “Effect of flupirtine on GABA-evoked currents” value (α4β3δ GABAA receptor; α4β3δ, 3 μM flupirtine, 1 μM GABA) was “potentiated”, the “Effect of flupirtine on GABA-evoked currents” value (α4β3δ GABAA receptor; α4β3δ, 10 μM flupirtine) was “augmented” and the “GABA Emax (normalized) in the presence” value (α4β3δ GABAA receptor; α4β3δ, 30 μM flupirtine, normalized to 30 μM GABA in solvent) was 1.55 ± 0.06. The “Effect of flupirtine on K+ currents” value [10] was “enhanced”, the “GABA Emax (normalized) in the presence” value (α3β3γ2S GABAA receptor) was 1.93 ± 0.10 n.s and the “Effect of flupirtine on THIP-induced currents” value [11] was “enhanced”. The “Effect of flupirtine on K+ currents at −30 mV” value ([12]; 3 μM flupirtine) was “enhanced”, the “Effect of flupirtine on K+ currents at −30 mV” value ([12]; 10 μM flupirtine) was “increased” and the “Bound by plasma proteins” value [13] was 80%. For the same molecule, the “Effect of flupirtine on GABA-induced currents” value [14] was “enhanced”, the “Effect on all characteristics of mIPSCs (amplitudes, rise times, half widths)” value ([4]; 30 μM flupirtine, 0.5 μM tetrodotoxin plus 10 μM CNQX) was “remained unaltered” and the Free plasma concentrations [15] was 1000 to 2000 nM. The “GABA Emax (normalized) in the presence” value (α5β3γ2S GABAA receptor) was 0.94 ± 0.06, the EC50 (Kv7 channels) was 5 µM and the “Effect on aIPSC peak amplitudes” value [16] was “unaltered”. It also gave an EC50 ([16]; Rattus norvegicus, Hippocampal neuron, n = 6, read-out: EC50 for the effect on aIPSC charge transfer) of 12 µM.
For `Cc1ncc2n1-c1ccc(Cl)cc1C(c1ccccc1F)=NC2` [midazolam], the “Effect on holding currents” value ([3]; 3 μM midazolam) was “slight shift of holding currents in an inward direction”, the “Effect on half widths of mIPSCs” value ([4]; 3 μM midazolam) was “increased” and the “Effect on mIPSC amplitudes or rise times” value ([4]; 3 μM midazolam) was “without altering”.
